A short description of series [1]: Selectivity index, ratio of CC50 for BALB/c mouse splenocytes to IC50 for Leishmania infantum amastigotes harboring iRFP gene infected BALB/c mouse splenocytes. Format: functional.
The subject of series [2] is Leishmania infantum. The series can be described thus: Antileishmanial activity against Leishmania infantum BCN150 promastigotes harboring iRFP gene by infrared imaging method. It counts as functional.
For series [3], the system named is Leishmania infantum. The series can be described thus: Antileishmanial activity against Leishmania infantum amastigotes harboring iRFP gene infected BALB/c mouse splenocytes after 48 hrs by infrared imaging method. Format: functional.
Series [4] in a line: Cytotoxicity against BALB/c mouse splenocytes assessed as cell viability after 48 hrs by alamar blue assay. Format: toxicity, Splenocyte. (In general: Resazurin is reduced to fluorescent resorufin, in cell work by metabolically active cells.)
Series [5] in a line: Inhibition of human recombinant topoisomerase 1B expressed in topoisomerase 1B- deficient Saccharomyces cerevisiae EKY3 assessed as decrease in relaxation of negatively supercoiled pSK DNA preincubated for 15 mins followed by supercoiled pSK DNA addition measured after 5 mins by aggarose gel electrophoresis.
Series [6] has as its system Leishmania infantum. The series can be described thus: Inhibition of Leishmania infantum recombinant topoisomerase 1B expressed in topoisomerase 1B- deficient Saccharomyces cerevisiae EKY3 assessed as decrease in relaxation of negatively supercoiled pSK DNA at 100 uM preincubated for 15 mins followed by supercoiled pSK DNA addition measured after 5 mins by aggarose gel electrophoresis.

The species entered for series [7] is Homo sapiens. The series can be described thus: Inhibition of human recombinant topoisomerase 1B expressed in topoisomerase 1B- deficient Saccharomyces cerevisiae EKY3 assessed as decrease in relaxation of negatively supercoiled pSK DNA at 100 uM preincubated for 5 mins followed by supercoiled pSK DNA addition measured after 5 mins by aggarose gel electrophoresis.

In series [8] the test system is Leishmania infantum. The series can be described thus: Inhibition of Leishmania infantum recombinant topoisomerase 1B expressed in topoisomerase 1B- deficient Saccharomyces cerevisiae EKY3 assessed as decrease in relaxation of negatively supercoiled pSK DNA at 100 uM preincubated for 5 mins followed by supercoiled pSK DNA addition measured after 5 mins by aggarose gel electrophoresis.

Series [9] has as its system Leishmania infantum. The series can be described thus: Inhibition of Leishmania infantum recombinant topoisomerase 1B expressed in topoisomerase 1B- deficient Saccharomyces cerevisiae EKY3 assessed as decrease in relaxation of negatively supercoiled pSK DNA at 100 uM preincubated for 1 min followed by supercoiled pSK DNA addition measured after 5 mins by aggarose gel electrophoresis.

Series [10] can be described thus: Inhibition of Leishmania infantum recombinant topoisomerase 1B expressed in topoisomerase 1B- deficient Saccharomyces cerevisiae EKY3 assessed as decrease in relaxation of negatively supercoiled pSK DNA preincubated for 15 mins followed by supercoiled pSK DNA addition measured after 5 mins by aggarose gel electrophoresis.
The species entered for series [11] is Homo sapiens. The series can be described thus: Inhibition of human recombinant topoisomerase 1B expressed in topoisomerase 1B- deficient Saccharomyces cerevisiae EKY3 assessed as decrease in relaxation of negatively supercoiled pSK DNA at 100 uM preincubated for 1 min followed by supercoiled pSK DNA addition measured after 5 mins by aggarose gel electrophoresis.

Molecules are shown by their SMILES. Active and inactive are the calls of the source. The calls are words filed in the database; no cut-off is given here.

A word on the IC50: it is the concentration that gives 50% inhibition. In general, CC50 refers to the concentration at which the toxic effect on the cells reaches its halfway point. In the case of `CSc1ccc(-c2nc3cccnc3c3c2Cc2ccccc2-3)cc1`, in series [1], the “Ratio CC50/IC50” value turned out to be 1.39. The IC50 is 75.1 µM in the series with Leishmania infantum [2] and 58.1 µM in the series with Leishmania infantum [3]. Also, the CC50 at 48 h in series [4] was found to be 80.9 µM.
For the molecule `Fc1ccc(-c2nc3cccnc3c3c2Cc2ccccc2-3)cc1`, the IC50 in series [5] is 87.7 µM; in the series on Leishmania infantum [2], 34.9 µM; with Leishmania infantum [3] it was 0.74 µM; in series [10] it was 14.7 µM. For the same molecule, the inhibition result with Leishmania infantum [6], in the series filed under Homo sapiens [7], in the series on Leishmania infantum [8], in the series with Leishmania infantum [9] and in the series filed under Homo sapiens [11] was “Active” in each case. Further, the “Ratio CC50/IC50” value in [1] turned out to be 68.2. Also, in series [4], the CC50 at 48 h was 50.5 µM.
Take `C[C@H]1Nc2cccnc2[C@H]2c3ccccc3C[C@H]21` (relative stereo): the “Ratio CC50/IC50” value in series [1] is recorded as more than 1.12. Also, the IC50 is more than 100 µM with Leishmania infantum [2] and 89.4 µM in the series on Leishmania infantum [3]. For the same molecule, in series [4], the CC50 at 48 h is more than 100 µM.
As to `c1ccc(-c2nc3cccnc3c3c2Cc2ccccc2-3)cc1`, the “Ratio CC50/IC50” value in series [1] came to 1.43. For the same molecule, the IC50 came to 70.1 µM in the series on Leishmania infantum [2] and 63.3 µM with Leishmania infantum [3]. Also, the CC50 at 48 h in series [4] was 90.2 µM.
In the case of `c1ccc([C@H]2Nc3cccnc3[C@H]3c4ccccc4C[C@H]32)cc1`, the IC50 was 46.5 µM in series [5], more than 100 µM in the series with Leishmania infantum [2], 65.1 µM in the series with Leishmania infantum [3] and 45.2 µM in series [10]. In addition, the inhibition result in the series with Leishmania infantum [6], in the series listed under Homo sapiens [7], in the series on Leishmania infantum [8] and in the series listed under Homo sapiens [11] was “Active” throughout. Further, in series [1], the “Ratio CC50/IC50” value came out at 1.45. For the same molecule, in series [4], the CC50 at 48 h was found to be 94.3 µM.
Turning to `Fc1ccc(-c2nc3cccnc3c3c2Cc2ccccc2-3)cc1F`, the “Ratio CC50/IC50” value in series [1] is listed as 0.95. Also, the IC50 with Leishmania infantum [2] is 86.1 µM; in the series with Leishmania infantum [3], 78.2 µM. The CC50 at 48 h in series [4] is 74.2 µM.
Consider `CCOC(=O)[C@H]1Nc2cccnc2[C@H]2c3ccccc3C[C@H]21` (relative stereo), for which the “Ratio CC50/IC50” value in [1] was more than 1.27. The IC50 in the series with Leishmania infantum [2] is 90.8 µM; in the series with Leishmania infantum [3], 78.5 µM. Moreover, in series [4], the CC50 at 48 h is more than 100 µM.
As for `Fc1ccc([C@H]2Nc3cccnc3[C@H]3c4ccccc4C[C@H]32)cc1` (relative stereo), the inhibition result with Leishmania infantum [6] and in the series with Leishmania infantum [8] was “Active” in each case. In addition, the “Ratio CC50/IC50” value in [1] is 19.5. Besides, the IC50 in the series on Leishmania infantum [2] came out at 9.8 µM; in the series with Leishmania infantum [3] it was 2.97 µM; in series [10] it was 49 µM. In series [4], the CC50 at 48 h came out at 57.9 µM.
As for `CCOC(=O)c1nc2cccnc2c2c1Cc1ccccc1-2`, the “Ratio CC50/IC50” value in series [1] came out at 2.4. Moreover, the IC50 worked out at 33.3 µM in the series on Leishmania infantum [2] and 25.1 µM with Leishmania infantum [3]. Further, the CC50 at 48 h in series [4] came to 59.4 µM.
Taken in the same sequence, the figures for `C[C@@H]1[C@H](O)[C@@H](C)/C=C/C=C/C=C/C=C/C=C/C=C/C=C/[C@H](O[C@@H]2O[C@H](C)[C@@H](O)[C@H](N)[C@@H]2O)C[C@@H]2O[C@](O)(C[C@@H](O)C[C@@H](O)[C@H](O)CC[C@@H](O)C[C@@H](O)CC(=O)O[C@H]1C)C[C@H](O)[C@H]2C(=O)O` [AMPHOTERICIN B] were more than 62.5, 0.77 µM, 0.32 µM and more than 20 µM.
Regarding `CC[C@@]1(O)C(=O)OCc2c1cc1n(c2=O)Cc2cc3ccccc3nc2-1` [CAMPTOTHECIN], in [1], the “Ratio CC50/IC50” value turned out to be 20.7. Further, the IC50 was 1.12 µM in the series with Leishmania infantum [2] and 0.03 µM in the series with Leishmania infantum [3]. Besides, the inhibition entry in the series with Leishmania infantum [9] and in the series filed under Homo sapiens [11] was “Active” in each case. Further, the CC50 at 48 h in series [4] turned out to be 0.62 µM.
With `COc1cccc(-c2nc3cccnc3c3c2Cc2ccccc2-3)c1`, the inhibition result in the series on Leishmania infantum [6], with Leishmania infantum [8] and in the series with Leishmania infantum [9] was “Active” in each case. In addition, in series [1], the “Ratio CC50/IC50” value is more than 1.07. The IC50 was more than 100 µM in the series with Leishmania infantum [2], 93.3 µM with Leishmania infantum [3] and 29.5 µM in [10]. Further, the CC50 at 48 h in [4] was more than 100 µM.
`Fc1ccc([C@H]2Nc3cccnc3[C@H]3c4ccccc4C[C@H]32)c(F)c1` (relative stereo): in series [1], the “Ratio CC50/IC50” value is 47.9. The IC50 in the series with Leishmania infantum [2] is 3.7 µM; in the series with Leishmania infantum [3], 0.67 µM; in series [10] it was 41.8 µM. The inhibition result with Leishmania infantum [8] and with Leishmania infantum [9] was “Active” in each case. The CC50 at 48 h in series [4] is 32.1 µM.
In the series on Leishmania infantum [2], `c1ccc2c(c1)Cc1c(-c3ccncc3)nc3cccnc3c1-2` registered a half-inhibitory concentration (IC50) of 33.9 µM. Moreover, in series [4], the cytotoxic concentration (CC50) at 48 h stood at 19.9 µM.
Take `Cc1ccc(-c2nc3cccnc3c3c2Cc2ccccc2-3)cc1`: in [1], the “Ratio CC50/IC50” value is 1.17. Also, the IC50 turned out to be 69.4 µM with Leishmania infantum [2] and 58.3 µM with Leishmania infantum [3]. Moreover, the CC50 at 48 h in [4] is 68.2 µM.
`COc1cccc([C@H]2Nc3cccnc3[C@H]3c4ccccc4C[C@H]32)c1` (relative stereo): in series [1], the “Ratio CC50/IC50” value is reported as 66.3. Moreover, the IC50 came out at 5.4 µM in the series with Leishmania infantum [2], 0.54 µM with Leishmania infantum [3] and 21.8 µM in series [10]. Further, the inhibition entry in the series on Leishmania infantum [8] and in the series on Leishmania infantum [9] was “Active” each time. Also, the CC50 at 48 h in [4] stood at 35.8 µM.
Take `Fc1ccc(-c2nc3cccnc3c3c2Cc2ccccc2-3)c(F)c1`: the “Ratio CC50/IC50” value in series [1] worked out at 12.7. This molecule also registered an IC50 in the series on Leishmania infantum [3] of 6.07 µM. Moreover, the CC50 at 48 h in series [4] worked out at 76.9 µM.
Regarding `O=[N+]([O-])c1ccc([C@H]2Nc3cccnc3[C@H]3c4ccccc4C[C@H]32)cc1` (relative stereo), the IC50 was 10.7 µM in series [5], more than 100 µM with Leishmania infantum [2], 91.3 µM in the series with Leishmania infantum [3] and more than 100 µM in [10]. The inhibition result with Leishmania infantum [6], in the series filed under Homo sapiens [7], with Leishmania infantum [8] and in the series listed under Homo sapiens [11] was “Active” each time. The “Ratio CC50/IC50” value in series [1] is given as more than 1.09. In addition, the CC50 at 48 h in [4] was more than 100 µM.
In the case of `Fc1cccc([C@H]2Nc3cccnc3[C@H]3c4ccccc4C[C@H]32)c1` (relative stereo), the “Ratio CC50/IC50” value in series [1] worked out at 0.9. The IC50 with Leishmania infantum [2] is 89.9 µM; in the series on Leishmania infantum [3], 94.7 µM. The CC50 at 48 h in series [4] worked out at 85.3 µM.
The matching figures for `c1ccc2c(c1)C[C@@H]1[C@H]2c2ncccc2N[C@@H]1c1ccncc1` (relative stereo): 1.45, 82.5 µM, 65.2 µM and 94.6 µM.
With `Fc1ccc([C@H]2Nc3cccnc3[C@H]3c4ccccc4C[C@H]32)cc1F` (relative stereo), the IC50 in series [5] is 24.4 µM; with Leishmania infantum [2], 86.8 µM; in the series with Leishmania infantum [3] it was 76.2 µM. For the same molecule, the inhibition result in the series filed under Homo sapiens [7] and in the series filed under Homo sapiens [11] was “Active” each time. For the same molecule, in series [1], the “Ratio CC50/IC50” value came to 1.02. The CC50 at 48 h in [4] was 77.5 µM.
With `COc1ccc(-c2nc3cccnc3c3c2Cc2ccccc2-3)cc1`, the inhibition entry in the series with Leishmania infantum [6], in the series on Leishmania infantum [8] and in the series on Leishmania infantum [9] was “Active” in each case. In series [1], the “Ratio CC50/IC50” value is given as 20.1. In addition, the IC50 is 5.8 µM with Leishmania infantum [3] and 14.1 µM in series [10]. In series [4], the CC50 at 48 h was 116 µM.
